Measurements published in patent US12187742B2 (XRAD Therapeutics, Inc., priority 2018, dated 2025).
Where a name gives a salt, the structure may show the parent alone.

What was measured:
[1] = target: DNA-PK (Homo sapiens (Human), UniProt P78527); test: DNA-PK Enzyme-Linked Immunosorbent Assay (phosphorylation of GST-p53 (1-101) peptide); format: biochemical; details: ELISA
Description: Assay of Compounds ATM and DNA-PK Inhibition
remove wash solution, turn plate upside down onto a thin paper towel and centrifuge at 1000 rpm for 1 min to absorb all wash buffer. Clean the bottom of plate with moist lint free paper. Scan plate immediately using ODYSSEY CLx (LI-COR) for the best results. DNA-PK Enzyme-Linked Immunosorbent Assay:
On day one, coat 96-well plate (ThermoFisher. Cat #: 442404) with GST-p53 (1-101) peptide (purified by Pharmaron, BCS department) by diluting 3 μg of GST-p53 each well with 0.1 M Na2CO3/NaHCO3, pH 9.6. Incubate the plate overnight at 4° C. The second day, remove coating buffer, wash 2× with PBST (1×PBS containing 0.1% Tween-20). Then add DNA-PK enzyme solution (Invitrogen, #PR9107A; the final DNA-PK concentration is 0.1 μg/mL), series dilution compounds (the final top concentration is 100 nM, 3 fold series dilution, with total 10 doses) and ATP solution (the final ATP concentration is 20 μM) to the 96-well plate. Incubate the plate at 25° C. for 1 hour. Then wash 3× with PBST (1×PBS containing 0.1% Tween-20). Block the plate with PBST+ 1% BSA at 4° C. overnight. The third day, wash 4× with PBST (1×PBS containing 0.1% Tween-20). Then add Phospho-p53 primary antibody (cell signaling Technology, #9286, Phospho-p53 (Ser15) (16G8) Mouse mAb) (1/1000) to each well. Seal with plate and incubate the plate for 1 h at 37° C. Wash 4× with PBST (1×PBS containing 0.1% Tween-20), add 100 μL of HRP-linked secondary antibody (Cell signaling Technology, #7076, Anti-mouse IgG, HRP-linked Antibody) (1/1000) to each well. Seal with tape and incubate the plate for 30 min at 37° C. Wash 4× with PBST (1×PBS containing 0.1% Tween-20), add 100 μL of TMB (Cell signaling Technology, #7004) substrate to each well. Seal with tape and incubate the plate for 10 min at 37° C. Then add 100 μL of Stop solution (Cell signaling Technology, #7002) to each well. Read the plate at 450 nm to detect absorption.

[2] = target: ATM (Homo sapiens (Human), UniProt Q13315); test: ATM in Cell Western Assay (pKAP1 in etoposide-treated MCF-7 cells); format: cell-based
Sequence of ATM (Q13315 whole entry): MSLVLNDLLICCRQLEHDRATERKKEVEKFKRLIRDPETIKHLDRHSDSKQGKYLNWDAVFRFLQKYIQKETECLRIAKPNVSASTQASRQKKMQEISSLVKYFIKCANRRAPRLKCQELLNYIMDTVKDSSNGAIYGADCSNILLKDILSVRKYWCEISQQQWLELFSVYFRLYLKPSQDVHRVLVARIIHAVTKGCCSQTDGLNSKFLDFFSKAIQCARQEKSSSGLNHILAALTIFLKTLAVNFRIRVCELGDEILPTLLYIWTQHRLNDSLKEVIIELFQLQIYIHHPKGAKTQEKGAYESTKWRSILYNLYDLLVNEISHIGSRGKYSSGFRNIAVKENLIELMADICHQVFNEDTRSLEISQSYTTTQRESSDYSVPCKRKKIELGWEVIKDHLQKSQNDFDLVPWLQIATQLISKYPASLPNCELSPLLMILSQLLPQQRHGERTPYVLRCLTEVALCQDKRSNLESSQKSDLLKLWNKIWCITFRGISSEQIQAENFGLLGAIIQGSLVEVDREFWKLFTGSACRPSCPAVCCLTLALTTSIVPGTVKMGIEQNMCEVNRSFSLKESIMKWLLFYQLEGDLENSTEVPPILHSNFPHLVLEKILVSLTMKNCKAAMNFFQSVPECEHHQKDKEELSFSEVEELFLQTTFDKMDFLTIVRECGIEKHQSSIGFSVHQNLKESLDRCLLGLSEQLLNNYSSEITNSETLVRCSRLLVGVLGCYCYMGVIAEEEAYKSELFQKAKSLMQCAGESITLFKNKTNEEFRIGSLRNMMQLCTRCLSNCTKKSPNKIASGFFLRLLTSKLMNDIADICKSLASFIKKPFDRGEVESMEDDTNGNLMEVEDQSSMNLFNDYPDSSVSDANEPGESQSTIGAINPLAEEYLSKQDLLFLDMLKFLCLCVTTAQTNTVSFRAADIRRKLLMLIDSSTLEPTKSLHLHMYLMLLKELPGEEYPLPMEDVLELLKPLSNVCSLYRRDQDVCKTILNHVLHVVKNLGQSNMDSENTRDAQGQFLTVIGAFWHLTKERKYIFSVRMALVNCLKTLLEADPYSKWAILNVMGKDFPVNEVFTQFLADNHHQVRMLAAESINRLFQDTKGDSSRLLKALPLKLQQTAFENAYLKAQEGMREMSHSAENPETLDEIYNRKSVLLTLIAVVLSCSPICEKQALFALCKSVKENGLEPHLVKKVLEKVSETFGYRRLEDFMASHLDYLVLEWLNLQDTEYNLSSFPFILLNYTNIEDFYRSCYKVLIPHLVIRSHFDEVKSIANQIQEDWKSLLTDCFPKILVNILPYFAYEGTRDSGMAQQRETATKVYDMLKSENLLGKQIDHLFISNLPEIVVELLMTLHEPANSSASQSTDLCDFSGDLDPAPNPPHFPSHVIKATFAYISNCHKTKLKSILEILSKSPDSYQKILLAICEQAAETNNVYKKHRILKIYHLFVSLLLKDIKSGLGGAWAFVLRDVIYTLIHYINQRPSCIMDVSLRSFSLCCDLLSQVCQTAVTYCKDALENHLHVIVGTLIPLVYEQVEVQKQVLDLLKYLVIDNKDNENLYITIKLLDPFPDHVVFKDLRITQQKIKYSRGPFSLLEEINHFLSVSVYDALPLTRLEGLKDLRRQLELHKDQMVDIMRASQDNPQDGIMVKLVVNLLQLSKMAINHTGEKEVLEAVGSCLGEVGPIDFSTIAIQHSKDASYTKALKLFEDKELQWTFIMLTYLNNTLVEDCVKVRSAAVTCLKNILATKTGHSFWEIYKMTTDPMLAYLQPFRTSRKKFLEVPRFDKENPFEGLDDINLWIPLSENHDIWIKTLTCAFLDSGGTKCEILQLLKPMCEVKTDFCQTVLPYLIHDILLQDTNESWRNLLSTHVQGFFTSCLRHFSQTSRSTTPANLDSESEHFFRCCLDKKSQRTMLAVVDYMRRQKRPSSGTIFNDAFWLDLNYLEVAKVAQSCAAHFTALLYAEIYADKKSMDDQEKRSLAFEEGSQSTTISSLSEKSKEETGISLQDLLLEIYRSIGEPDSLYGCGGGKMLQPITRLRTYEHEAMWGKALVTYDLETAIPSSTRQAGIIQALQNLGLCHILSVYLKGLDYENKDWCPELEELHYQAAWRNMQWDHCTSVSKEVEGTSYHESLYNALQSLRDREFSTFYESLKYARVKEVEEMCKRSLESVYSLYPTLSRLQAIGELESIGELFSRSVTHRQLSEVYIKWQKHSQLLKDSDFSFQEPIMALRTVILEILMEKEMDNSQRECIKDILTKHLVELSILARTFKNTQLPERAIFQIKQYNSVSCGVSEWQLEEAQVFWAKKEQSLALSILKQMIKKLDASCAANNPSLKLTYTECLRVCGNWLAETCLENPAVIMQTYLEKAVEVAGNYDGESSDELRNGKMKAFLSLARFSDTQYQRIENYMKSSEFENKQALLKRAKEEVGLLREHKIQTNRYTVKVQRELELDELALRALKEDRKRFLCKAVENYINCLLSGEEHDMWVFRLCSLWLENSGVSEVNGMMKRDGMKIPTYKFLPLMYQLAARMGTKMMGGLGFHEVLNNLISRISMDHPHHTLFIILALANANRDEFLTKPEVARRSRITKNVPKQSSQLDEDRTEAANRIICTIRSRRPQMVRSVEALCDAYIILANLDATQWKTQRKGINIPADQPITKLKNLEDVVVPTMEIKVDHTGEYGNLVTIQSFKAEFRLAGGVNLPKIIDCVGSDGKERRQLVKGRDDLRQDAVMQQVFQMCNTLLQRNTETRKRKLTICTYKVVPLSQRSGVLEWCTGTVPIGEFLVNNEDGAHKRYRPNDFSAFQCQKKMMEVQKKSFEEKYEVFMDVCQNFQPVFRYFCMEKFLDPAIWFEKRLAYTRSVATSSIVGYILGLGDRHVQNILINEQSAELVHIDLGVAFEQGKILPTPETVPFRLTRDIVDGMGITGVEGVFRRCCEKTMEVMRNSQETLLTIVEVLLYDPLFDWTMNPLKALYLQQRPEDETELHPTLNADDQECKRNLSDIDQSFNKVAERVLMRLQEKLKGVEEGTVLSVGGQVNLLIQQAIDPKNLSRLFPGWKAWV
Outline: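 After paraformaldehyde fixation and Triton X-100 permeabilization, immunostained plates were read by infrared scanning (ODYSSEY CLx). Compound was given as 10 doses, 3-fold dilutions from a 1 μM final top concentration.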

[3] = pKAP1 in etoposide-treated MCF-7 cells
[4] = MCF-7 cells, etoposide 100 μM, 1 hr, pKAP1 readout

IC50 ([1]; 20 μM ATP) [nM] | IC50 [2, 3] [nM] | IC50 ([1]; ATP 20 μM) [nM] | IC50 [2, 4] [nM] | SMILES
 |  | 1 to 100 | 1 to 100 | CN1C(=O)C2(CCC2)c2c1cnc1ccc(-c3cnc(N4CC(N(C)C)C4)c(NS(=O)(=O)C4CC4)c3)cc21 [Example 320, N-(2-(3-(Dimethylamino)azetidin-1-yl)-5-(3′-methyl-2′-oxo-2′,3′-dihydrospiro[cyclobulane-1,1′-pyrrolo[2,3-c]quinolin]-8′-yl)pyridin-3-yl)cyclopropanesulfonamide]
 |  | 1 to 100 | 1 to 100 | CN1CCCN(c2ncc(-c3ccc4ncc5c(c4c3)C3(CC3)C(=O)N5C)cc2NS(=O)(=O)c2ccccc2)CC1 [Example 53, N-(2-(4-Methyl-1,4-diazepan-1-yl)-5-(3′-methyl-2′-oxo-2′,3′-dihydrospiro[cyclopropane-1,1′-pyrrolo[2,3-c]quinolin]-8′-yl)pyridin-3-yl)benzenesulfonamide]
 |  | < 0.5 | 1 to 100 | Cc1ccc(S(=O)(=O)Nc2cc(-c3ccc4ncc5c(c4c3)C3(CC3)C(=O)N5C)cnc2OCCCN(C)C)cc1 [Example 100, N-(2-(3-(Dimethylamino)propoxy)-5-(3′-methyl-2′-oxo-2′,3′-dihydrospiro [cyclopropane-1,1′-pyrrolo[2,3-c]quinolin]-8′-yl)pyridin-3-yl)-4-methylbenzenesulfonamide]
 |  | 1 to 100 | 1 to 100 | CN(C)CCCOc1ncc(-c2ccc3ncc4c(c3c2)C2(CCC2)C(=O)N4C)cc1NS(=O)(=O)c1ccccn1 [Example 148, N-(2-(3-(Dimethylamino)propoxy)-5-(3′-methyl-2-oxo-2′,3′-dihydrospiro[cyclobulane-1,1′-pyrrolo[2,3-c]quinolin]-8′-yl)pyridin-3-yl)pyridine-2-sulfonamide hydrochloride]
 |  | < 0.5 | 1 to 100 | CN1C(=O)C2(CCC2)c2c1cnc1ccc(-c3cnc(OCCCN4CCCCC4)c(NS(C)(=O)=O)c3)cc21 [Example 225, N-(5-(3′-Methyl-2′-oxo-2′,3′-dihydrospiro[cyclobutane-1,1′-pyrrolo[2,3-c]quinolin]-8′-yl)-2-(3-(piperidin-1-yl)propoxy)pyridin-3-yl)methanesulfonamide]
1 to 100 | 1 to 100 |  |  | CCN(C)S(=O)(=O)Nc1cc(-c2ccc3ncc4c(c3c2)C2(CCC2)C(=O)N4C)cnc1N1CC(N(C)C)C1 [Example 339, 8′-{6-[3-(Dimethylamino)azetidin-1-yl]-5-{[ethyl(methyl)sulfamoyl]amino}pyridin-3-yl}-3′-methyl-2′,3′-dihydrospiro [cyclobutane-1,1′-pyrrolo[2,3-c]quinoline]-2′-one]
 |  | 0.5 to 1 | 1 to 100 | Cc1ccc(S(=O)(=O)Nc2cc(-c3ccc4ncc5c(c4c3F)C3(CCC3)C(=O)N5C)cnc2OCCCN(C)C)cc1 [Example 204, N-(2-(3-(Dimethylamino)propoxy)-5-(9′-fluoro-3′-methyl-2′-oxo-2′,3′-dihydrospiro[cyclobutane-1,1′-pyrrolo[2,3-c]quinolin]-8′-yl)pyridin-3-yl)-4-methylbenzenesulfonamide]
 |  |  | 1 to 100 | CN(C)CCCOc1ncc(-c2ccc3ncc4c(c3c2)C2(CCC2)C(=O)N4C)cc1S(=O)(=O)N(C)C [Example 234, 2-(3-(Dimethylamino)propoxy)-N,N-dimethyl-5-(3′-methyl-2′-oxo-2′,3′-dihydrospiro[cyclobutane-1,1′-pyrrolo[2,3-c]quinolin]-8′-yl)pyridine-3-sulfonamide]
 |  |  | 1 to 100 | CCN1C(=O)C2(CCC2)c2c1cnc1ccc(-c3cnc(OCCNC)c(NS(C)(=O)=O)c3)cc21 [Example 308, N-(5-(3′-Ethyl-2′-oxo-2′,3′-dihydrospiro[cyclobutane-1,1′-pyrrolo[2,3-c]quinolin]-8′-yl)-2-(2-(methylamino)ethoxy)pyridin-3-yl) methanesulfonamide hydrochloride]
 |  |  | 1 to 100 | CN(CCCOc1ncc(-c2ccc3ncc4c(c3c2)C2(CCC2)C(=O)N4C)cc1NS(C)(=O)=O)CC(F)(F)F [Example 231]

The remaining lines, values behind:

SMILES | IC50 ([1]; 20 μM ATP) [nM] | IC50 [2, 3] [nM] | IC50 ([1]; ATP 20 μM) [nM] | IC50 [2, 4] [nM]
CC(C)NCCOc1ncc(-c2cc3c4c(cnc3cc2F)N(C)C(=O)C42CN(c3ccc(C(F)(F)F)cc3)C2)cc1NS(C)(=O)=O [Example 536, N-(5-(7′-Fluoro-3′-methyl-2′-oxo-1-(4-(trifluoromethyl)phenyl)-2′,3′-dihydrospiro[azetidine-3,1′-pyrrolo[2,3-c]quinolin]-8′-yl)-2-(2-(isopropylamino)ethoxy)pyridin-3-yl)methanesulfonamide hydrochloride] | 1 to 100 | 1 to 100 |  | 
CN(C)CCCCOc1ncc(-c2ccc3ncc4c(c3c2)C2(CC2)C(=O)N4C)cc1NS(=O)(=O)C1CC1 [Example 56, N-(2-(4-(Dimethylamino)butoxy)-5-(3′-methyl-2′-oxo-2′,3′-dihydrospiro [cyclopropane-1,1′-pyrrolo[2,3-c]quinolin]-8′-yl)pyridin-3-yl)cyclopropanesulfonamide] |  |  | 1 to 100 | 1 to 100
COc1cc([C@H]2C[C@@]3(C2)C(=O)N(C)c2cnc4cc(F)c(-c5cnc(OCCNC(C)C)c(NS(C)(=O)=O)c5)cc4c23)ccn1 [Example 433, trans-N-(5-(7′-Fluoro-3-(2-methoxypyridin-4-yl)-3′-methyl-2′-oxo-2′,3′-dihydrospiro[cyclobutane-1,1′-pyrrolo[2,3-c]quinolin]-8′-yl)-2-(2-(isopropylamino)ethoxy)pyridin-3-yl)methanesulfonamide] | 1 to 100 | > 100 |  | 
CCS(=O)(=O)Nc1cc(-c2cc3c4c(cnc3cc2F)N(C)C(=O)C42CN(c3ccccc3)C2)cnc1OCCNC(C)C [Example 522, N-(5-(7′-Fluoro-3′-methyl-2′-oxo-1-phenyl-2′,3′-dihydrospiro[azetidine-3,1′-pyrrolo[2,3-c]quinolin]-8′-yl)-2-(2-(isopropylamino)ethoxy)pyridin-3-yl)ethanesulfonamide hydrochloride] | 0.5 to 1 | 1 to 100 |  | 
CC(C)NCCOc1ncc(-c2cc3c4c(cnc3cc2F)N(C)C(=O)C42CCC2)cc1NS(=O)(=O)C1(C)CC1 [Example 367, N-(5-(7′-Fluoro-3′-methyl-2′-oxo-2′,3′-dihydrospiro[cyclobutane-1,1′-pyrrolo[2,3-c]quinolin]-8′-yl)-2-(2-(isopropylamino)ethoxy)pyridin-3-yl)-1-methylcyclopropane-l-sulfonamide] | 1 to 100 | 1 to 100 |  | 
CC(C)NCCOc1ncc(-c2cc3c(cc2F)ncc2c3[C@]3(C[C@@H](c4ccccc4)C3)C(=O)N2C)cc1NS(C)(=O)=O [Example 415, trans-N-(5-(7′-Fluoro-3′-methyl-2′-oxo-3-phenyl-2′,3′-dihydrospiro[cyclobulane-1,1′-pyrrolo[2,3-c]quinolin]-8′-yl)-2-(2-(isopropylamino)ethoxy)pyridin-3-yl)methanesulfonamide hydrochloride] | 1 to 100 | 1 to 100 |  | 
CC(C)NCCOc1ncc(-c2cc3c4c(cnc3cc2F)N(C)C(=O)C42CN(C(=O)N(C)C)C2)cc1NS(C)(=O)=O [Example 518, 7′-Fluoro-8′-(6-(2-(isopropylamino)ethoxy)-5-(methylsulfonamido)pyridin-3-yl)-N,N,3′-trimethyl-2′-oxo-2′,3′-dihydrospiro[azetidine-3,1′-pyrrolo[2,3-c]quinoline]-1-carboxamide] |  | > 100 |  | 
CN(C)CCCOc1ncc(-c2ccc3ncc4c(c3c2)C2(CCC2)C(=O)N4C)cc1NS(=O)(=O)c1ccc(OC(F)(F)F)cc1 [Example 143, N-(2-(3-(Dimethylamino)propoxy)-5-(3′-methyl-2′-oxo-2′,3′-dihydrospiro[cyclobulane-1,1′-pyrrolo[2,3-c]quinolin]-8′-yl)pyridin-3-yl)-4-(trifluoromethoxy)benzenesulfonamide hydrochloride] |  |  |  | 1 to 100
COc1cccc(N2CC3(C2)C(=O)N(C)c2cnc4cc(F)c(-c5cnc(OCCNC(C)C)c(NS(C)(=O)=O)c5)cc4c23)c1 [Example 534, N-(5-(7′-Fluoro-1-(3-methoxyphenyl)-3′-methyl-2′-oxo-2′,3′-dihydrospiro [azetidine-3,1′-pyrrolo[2,3-c]quinolin]-8′-yl)-2-(2-(isopropylamino)ethoxy)pyridin-3-yl)methanesulfonamide] |  | 1 to 100 |  | 
